The source of these data is article PMC9767416, “Discovery of small molecule mechanistic target of rapamycin inhibitors as anti-aging and anti-cancer therapeutics” (Frontiers in Aging Neuroscience, 2022).

Data set [1] is described as follows: Solubility by nephelometry (water, buffer pH 7.4). The format is physicochemical. How it is done: Compounds’ solubility was measured by the NEPHELOstar microplate instrument (BMG Labtech, Offenburg, Germany). Stock solutions were prepared by dissolving the tested compounds in ultrapure water or sodium phosphate buffer (pH 7.4) to obtain a concentration of 160 and 1,000 μg/mL. Each stock solution was sonicated at full power by Hielscher UP100H needle ultrasonic processor (Teltow, Germany) before loading into NEPHELOstar instrument injector A. Ultrapure water or sodium phosphate buffer was loaded into injector B. Compound was diluted in 48 wells in 0–160 or 0–1,000 μg/mL range and subsequently shook for 30 s. Each well was scanned with 80% laser power in matrix 3 × 3, beam width 2 mm, and obtained data were evaluated in GraphPad Prism 7.03 (GraphPad Software, San Diego, CA, USA) using segmental linear regression.

A further data set concerns RPE-1 cells. Description: Time-lapse microscopy (Incucyte) of proliferating RPE-1. In kind it is cell-based, human. To be noted: higher concentrations 80–100 μM, 72 h. How it is done: (§1) For auto-monitoring of cells, Incucyte SX1 Live-Cell Analysis System (Sartorius, Göttingen, Germany), located in an incubator maintained at 37°C under a 5% CO2 atmosphere and 95% humidity, was utilized. The images (1,408 × 1,040 pixels at 1.24 microns/pixel) were acquired using a 10× objective lens in phase contrast, red fluorescence (excitation: 585 ± 20 nm, emission: 635 [625, 705] nm, acquisition time: 100 ms) channels every 60 min during 72 h. The first image was acquired 30 min after adding compounds. The images were processed to measure cell confluence using Incucyte software (version 2022A). Annexin V – Dy647, Apronex (diluted 1:1,000) was used for apoptotic cell staining.

The next data set concerns BJ, RPE-1 and U373 cells. The experiment in a line: Crystal violet and resazurin proliferation screen in proliferating cells. In kind it is cell-based, human. To be noted: RPE-1, U373, 0, 10, 50, 80, 100 μM, 24 h. How it is done: All cell lines used in the study were obtained from the American Type Culture Collection (ATCC, Manassas, VA, USA). Human telomerase-immortalized retinal pigment epithelial cells RPE-1, glioblastoma U-87 MG, glioblastoma U373MG, glioblastoma T98G, glioblastoma A-172, breast adenocarcinoma MDA-MB-231, prostate carcinoma DU-145, and non-small cell lung cancer NCI-H1299 cell lines were cultured in Dulbecco’s modified Eagle’s medium (DMEM, Thermo Fisher Scientific, Waltham, MA, USA) with high glucose (4.5 g/L). Primary human skin BJ fibroblasts were cultured in Dulbecco’s modified Eagle’s medium (DMEM, Thermo Fisher Scientific, Waltham, MA, USA) with low glucose (1 g/L). Both cell culture media were supplemented with 10% fetal bovine serum (FBS, Gibco/Thermo Fisher Scientific) and non-essential amino acids (NEAA), 100 units/mL of penicillin, and 100 μg/mL of streptomycin (Sigma-Aldrich). Cells were kept at 37°C under a 5% CO2 atmosphere and 95% humidity.
Twenty-four hours before treatment, cells were plated in 96-well plates at densities of 2,850 cells per well for senescent RPE-1 (IR-RPE-1), 3,350 cells per well for proliferating RPE-1 and senescent BJ (DIS-BJ), and 5,000 cells per well for U373, T98, A172, U87, TMZ-U87, and proliferating BJ cells.
For the crystal violet assay, the cells were washed twice with 150 μL PBS and stained with 30 μL 0.5% (w/v) crystal violet in 20% methanol for 15 mins. Next, the plates were washed five times with ddH2O and left to dry overnight. Crystal violet was solubilized with 75 μL 0.2% Triton X-100 (Sigma) in PBS for 15 mins. The absorbance was read at 595 nm using a microplate reader (Envision, PerkinElmer, Waltham, MA, USA). The absorbance of crystal violet in treated cells was expressed as a percentage of absorbance in untreated cells. Each condition was measured at least in triplicate.
For the resazurin assay, 200 μL of the culture medium of each well was exchanged for 100 μL of resazurin (stock solution 30 mg/mL; Sigma, St. Louis, MO, USA) diluted 10 times in the culture medium, and the cells were incubated at 37°C for 1–3 h. Reading of fluorescence was done using a microplate reader (PerkinElmer, Waltham, MA, USA). Absolute values of fluorescence were related to the values of untreated cells. Each condition was measured at least in triplicate.

The next data set deals with U373 cells. The experiment in a line: Time-lapse microscopy (Incucyte) of U373. The format is cell-based, human. The conditions noted are these: 100 μM, 72 h. How it is done: as §1
A short description of data set [2]: Shake-flask partition coefficient logP and distribution coefficient logD (pH 7.4). The format is physicochemical. How it is done:
Before the initiation of the intended experiments, all solvents were mutually saturated at 21°C. […] For saturation, large stock bottles containing n-octanol and 12% of water/buffer or water/buffer and 12% of n-octanol were shaken for 30 mins on a mechanical shaker and subsequently left to stand on the bench overnight until the phases separated. Approximately 0.50 mg of tested substance was added to the test vessels alongside with 1:1 volume ratio of saturated solvents (250 μL). The test vessels were shaken on the mechanical shaker (Multi Reax, Heidolph Instruments, Schwabach, Germany) for 30 min at the highest speed and then centrifuged for phase separation (16.873 × g for 5 min; Eppendorf 5418 Microcentrifuge, Prague, Czech Republic). Both organic and aqueous phases were sampled for LC-MS analysis. UHPLC-DAD-MS (UHPLC Infinity II 1290, detection by DAD and QqQ 6470; Agilent Technologies, CA, USA; separation on Arion C18 polar column 100 × 2.1 mm, 2.1 μm; Chromservis, Czech Republic) was used for determination of the exact concentration of tested substances. The total quantity of substance (in both phases) was used for logP/logD values calculation.

≈ marks a conversion by molar mass, not a printed value. Where two headings read alike, the source gives them in different places.

Turning to `O=C(O[C@@H]1Cc2c(O)cc(O)cc2O[C@@H]1c1ccc(O)c(O)c1)c1cc(O)c(O)c(O)c1` [Compound 7, epicatechin gallate], the solubility kinetic at 30 s is greater than 1000 µg/mL in data set [1] (aqueous buffer, sodium phosphate buffer pH 7.4, nephelometry, read-out: Sol. (buffer 7.4)) and 789 µg/mL (≈ 1780 µM) in data set [1] (ultrapure water, nephelometry, read-out: Sol. (H2O)). For the same compound, the “logSpH 7.4” value in data set [1] (buffer pH 7.4) is on record as greater than −2.65. The compound further came in with a solubility at 30 s in data set [1] (medium not told apart (water and buffer pH 7.4)) greater than 1000 µg/mL. In data set [1] (water), the logSH2O is −2.75. Also, the “effect on cell proliferation (cell confluence, time-lapse)” value in the data set on RPE-1 cells and in the data set with U373 cells was “cytostatic effect” in each case. The “effect on the readout of crystal violet and resazurin assays” value in the data set with BJ, RPE-1 and U373 cells is listed as “mild (although sometimes statistically significant) suppressive effect”. Moreover, the logD in data set [2] (n-octanol/sodium phosphate buffer, pH 7.4, shake-flask, n-octanol/sodium phosphate buffer pH 7.4, read-out: logD) amounted to 1.52 ± 0.01. Besides, in data set [2] (n-octanol/water, shake-flask, n-octanol/water, read-out: logP), the lipophilicity (logP) was 1.48 ± 0.03.
